Tested on: Sprague-Dawley rats
Test: Hematology
Format: in vivo, Rattus norvegicus
Set-up: key to Dose response, MCH / Dose response, MCHC / Dose response, PLT / Dose response, MCV: D: significant dose response (for results, see Table 2); T: significant trend; HCT, Hematocrit: unit not given here
Details: for RBC, Red cell count / HCT, Hematocrit / Basophils / Eosinophils / HB, Hemoglobin / Lymphocytes / MCH, Mean corpuscular hemoglobin / MCHC, Mean corpuscular hemoglobin concentration / MCV, Mean corpuscular volume / MPV, Mean platelet volume / Monocytes / Neutrophils / PDW, Platelet distribution width / PLT, Platelet count / WBC, Leukocyte total count: group mean; for RBC, CED: adipose tissue concentration based
Description: Basic blood picture analysis was carried out using Advia 120 analyzer (Bayer, later Siemens Diagnostic Division, Dublin, Ireland). This analysis includes red cell count (RBC), hemoglobin (HB), hematocrit (HCT), platelet count (PLT), leukocyte total count (WBC) and differential count as well as the calculated red cell and platelet parameters mean corpuscular volume (MCV), mean corpuscular hemoglobin (MCH), mean corpuscular hemoglobin concentration (MCHC), red cell distribution width - standard deviation (RDW-SD), platelet distribution width (PDW) and mean platelet volume (MPV). Blood cell counting is based on isovolumetric sphering and fixing the cells, stains and light scattering. Visual leukocyte differential counting was done after May-Grünwald-Giemsa staining.
Data were also analyzed using the BMD method, which is based on dose-response modeling of the full data set using a nested family of exponential and Hill models. The analyses were done on data of males and females combined, using sex as a covariate. […] In that case, different Critical Effect Doses (CEDs) and CEDs at the lowest bound of the confidence interval (CED-L) were generated for each sex. If no difference between sexes is detected, a CED and CED-Ls for the combined data is generated. However, this was also done if the curve fits are close, and separate analyses for males and females were then performed manually. CEDs and CED-Ls were calculated at the predefined Critical Effect Size (CES) of 5% (EFSA standard) or 10%.

[1] = females, total doses 0-1700 mg/kg bw
[2] = females, CES 5%, total dose based
[3] = females, CES 10%, total dose based
[4] = males, total dose 3 mg/kg bw, N=5
[5] = males, total dose 10 mg/kg bw, N=5
[6] = males, total dose 30 mg/kg bw, N=5
[7] = males, total dose 100 mg/kg bw, N=5
[8] = males, total dose 300 mg/kg bw, N=5
[9] = males, total dose 300 mg/kg bw, N=5, p<0.01 vs. control
[10] = males, total dose 1000 mg/kg bw, N=5
[11] = males, total dose 1000 mg/kg bw, N=5, p<0.001 vs. control
[12] = males, total dose 1700 mg/kg bw, N=5
[13] = males, total dose 1700 mg/kg bw, N=5, p<0.001 vs. control
[14] = males, total doses 0-1700 mg/kg bw
[15] = males, CES 5%, total dose based
[16] = males, CES 10%, total dose based

Clc1cc(Cl)c(-c2cc(Cl)c(Cl)c(Cl)c2Cl)cc1Cl [PCB 180, 2,2′,3′,4,4′,5,5′-heptachlorobiphenyl]
RBC, Red cell count (females, total dose 1700 mg/kg bw, N=5, p<0.001 vs. control): 6.43e+12 L⁻¹
HCT, Hematocrit (females, total dose 1700 mg/kg bw, N=5, p<0.01 vs. control): 0.41
Dose response, HB [1]: D, T
Dose response, HCT [1]: D, T
Dose response, MCV [1]: T
Dose response, RBC [1]: D, T
Hematocrit, CED [2]: 832 mg/kg bw
Hematocrit, CED-L [2]: 646 mg/kg bw
Hemoglobin, CED [2]: 739 mg/kg bw
Hemoglobin, CED-L [2]: 600 mg/kg bw
Red blood cell count, CED [2]: 638 mg/kg bw
Red blood cell count, CED-L [2]: 514 mg/kg bw
Red cell distribution width - SD, CED [2]: 1400 mg/kg bw
Red cell distribution width - SD, CED-L [2]: 1093 mg/kg bw
Hematocrit, CED [3]: 1710 mg/kg bw
Hematocrit, CED-L [3]: 1327 mg/kg bw
Hemoglobin, CED [3]: 1520 mg/kg bw
Hemoglobin, CED-L [3]: 1233 mg/kg bw
Red blood cell count, CED [3]: 1310 mg/kg bw
Red blood cell count, CED-L [3]: 1056 mg/kg bw
Red cell distribution width - SD, CED [3]: 1650 mg/kg bw
Red cell distribution width - SD, CED-L [3]: 1498 mg/kg bw
RBC, CED (females): 4170 µg/g lipid
Basophils [4]: 0.0%
Eosinophils [4]: 0.6%
HB, Hemoglobin [4]: 179 g/L
HCT, Hematocrit [4]: 0.52
Lymphocytes [4]: 87%
MCH, Mean corpuscular hemoglobin [4]: 21.9 pg
MCHC, Mean corpuscular hemoglobin concentration [4]: 346 g/L
MCV, Mean corpuscular volume [4]: 63.4 fL
MPV, Mean platelet volume [4]: 7.16 fL
Monocytes [4]: 4.4%
Neutrophils [4]: 8.0%
PDW, Platelet distribution width [4]: 7.66 fL
PLT, Platelet count [4]: 8.36e+11 L⁻¹
RBC, Red cell count [4]: 8.18e+12 L⁻¹
WBC, Leukocyte total count [4]: 1.896e+10 L⁻¹
Basophils [5]: 0.2%
Eosinophils [5]: 0.6%
HB, Hemoglobin [5]: 171 g/L
HCT, Hematocrit [5]: 0.49
Lymphocytes [5]: 84.6%
MCH, Mean corpuscular hemoglobin [5]: 22.02 pg
MCHC, Mean corpuscular hemoglobin concentration [5]: 350 g/L
MCV, Mean corpuscular volume [5]: 63.0 fL
MPV, Mean platelet volume [5]: 6.96 fL
Monocytes [5]: 4.4%
Neutrophils [5]: 10.2%
PDW, Platelet distribution width [5]: 7.54 fL
PLT, Platelet count [5]: 8.27e+11 L⁻¹
RBC, Red cell count [5]: 7.79e+12 L⁻¹
WBC, Leukocyte total count [5]: 1.674e+10 L⁻¹
Basophils [6]: 0.0%
Eosinophils [6]: 0.6%
HB, Hemoglobin [6]: 170 g/L
HCT, Hematocrit [6]: 0.49
Lymphocytes [6]: 87.8%
MCH, Mean corpuscular hemoglobin [6]: 22 pg
MCHC, Mean corpuscular hemoglobin concentration [6]: 349 g/L
MCV, Mean corpuscular volume [6]: 63.1 fL
MPV, Mean platelet volume [6]: 6.92 fL
Monocytes [6]: 4.2%
Neutrophils [6]: 7.4%
PDW, Platelet distribution width [6]: 7.44 fL
PLT, Platelet count [6]: 8.6e+11 L⁻¹
RBC, Red cell count [6]: 7.73e+12 L⁻¹
WBC, Leukocyte total count [6]: 1.7e+10 L⁻¹
Basophils [7]: 0.0%
Eosinophils [7]: 0.6%
HB, Hemoglobin [7]: 170 g/L
HCT, Hematocrit [7]: 0.48
Lymphocytes [7]: 87.8%
MCH, Mean corpuscular hemoglobin [7]: 22.18 pg
MCHC, Mean corpuscular hemoglobin concentration [7]: 352 g/L
MCV, Mean corpuscular volume [7]: 63.1 fL
MPV, Mean platelet volume [7]: 7.28 fL
Monocytes [7]: 4.4%
Neutrophils [7]: 7.2%
PDW, Platelet distribution width [7]: 7.90 fL
PLT, Platelet count [7]: 8.93e+11 L⁻¹
RBC, Red cell count [7]: 7.65e+12 L⁻¹
WBC, Leukocyte total count [7]: 1.654e+10 L⁻¹
Basophils [8]: 0.0%
Eosinophils [8]: 1.0%
HB, Hemoglobin [8]: 165 g/L
Lymphocytes [8]: 85.8%
MCH, Mean corpuscular hemoglobin [8]: 22.38 pg
MCHC, Mean corpuscular hemoglobin concentration [8]: 351 g/L
MCV, Mean corpuscular volume [8]: 63.8 fL
MPV, Mean platelet volume [8]: 7.12 fL
Monocytes [8]: 5.2%
Neutrophils [8]: 8.0%
PDW, Platelet distribution width [8]: 7.66 fL
PLT, Platelet count [8]: 9.4e+11 L⁻¹
WBC, Leukocyte total count [8]: 2.076e+10 L⁻¹
HCT, Hematocrit [9]: 0.47
RBC, Red cell count [9]: 7.38e+12 L⁻¹
Basophils [10]: 0.0%
Eosinophils [10]: 1.0%
Lymphocytes [10]: 86.8%
MCH, Mean corpuscular hemoglobin [10]: 22.94 pg
MCV, Mean corpuscular volume [10]: 63.2 fL
MPV, Mean platelet volume [10]: 7.04 fL
Monocytes [10]: 3.6%
Neutrophils [10]: 8.6%
PDW, Platelet distribution width [10]: 7.60 fL
PLT, Platelet count [10]: 8.85e+11 L⁻¹
WBC, Leukocyte total count [10]: 1.798e+10 L⁻¹
HCT, Hematocrit [11]: 0.44
RBC, Red cell count [11]: 6.99e+12 L⁻¹
MCHC, Mean corpuscular hemoglobin concentration (males, total dose 1000 mg/kg bw, N=5, p<0.01 vs. control): 364 g/L
HB, Hemoglobin (males, total dose 1000 mg/kg bw, N=5, p<0.05 vs. control): 161 g/L
Basophils [12]: 0.4%
Eosinophils [12]: 0.4%
Lymphocytes [12]: 87.2%
MCH, Mean corpuscular hemoglobin [12]: 22.78 pg
MCHC, Mean corpuscular hemoglobin concentration [12]: 355 g/L
MCV, Mean corpuscular volume [12]: 64.2 fL
MPV, Mean platelet volume [12]: 7.08 fL
Monocytes [12]: 5.4%
Neutrophils [12]: 6.6%
PDW, Platelet distribution width [12]: 7.54 fL
PLT, Platelet count [12]: 9.37e+11 L⁻¹
WBC, Leukocyte total count [12]: 1.68e+10 L⁻¹
HCT, Hematocrit [13]: 0.45
RBC, Red cell count [13]: 6.99e+12 L⁻¹
HB, Hemoglobin (males, total dose 1700 mg/kg bw, N=5, p<0.01 vs. control): 159 g/L
Dose response, HB [14]: D, T
Dose response, HCT [14]: D, T
Dose response, MCH [14]: T
Dose response, MCHC [14]: T
Dose response, PLT [14]: T
Dose response, RBC [14]: D, T
Hematocrit, CED [15]: 140 mg/kg bw
Hematocrit, CED-L [15]: 66.3 mg/kg bw
Hemoglobin, CED [15]: 201 mg/kg bw
Hemoglobin, CED-L [15]: 62.8 mg/kg bw
Platelet count, CED [15]: 40.7 mg/kg bw
Platelet count, CED-L [15]: 9.68 mg/kg bw
Red blood cell count, CED [15]: 138 mg/kg bw
Red blood cell count, CED-L [15]: 82.2 mg/kg bw
Hematocrit, CED [16]: 481 mg/kg bw
Platelet count, CED [16]: 143 mg/kg bw
Red blood cell count, CED [16]: 436 mg/kg bw
Red blood cell count, CED-L [16]: 252 mg/kg bw
RBC, CED (males): 598 µg/g lipid

From paper PMC4138103 (PLoS ONE, 2014)
